From patent US12414960B2, “Analogues of oleuropein and oleacein and uses thereof” (Attica Sciences Ltd., priority 2020, dated 2025)

Tests used:
HepG2 liver cancer tumor = experiment: HepG2 xenograft mouse model; assay type: in vivo, nu/nu mice; settings: 20 mg/kg i.p. every 5 days, until 20 days post-treatment
Experimental: The effect of GS27 on liver cancer tumor growth in mice was evaluated in a HepG2 xenograft mouse model. HepG2 is a human liver cancer cell line, obtained from ATCC (cat. No HB-8065). Since hepatocellular carcinoma is often treated with the chemotherapeutic agent doxorubicin and embolization, results were compared to those obtained with doxorubicin.
Xenograft tumors were generated by injecting HepG2 liver cancer cells (2.5×10^6) into the right flank of female nu/nu mice (Charles River Laboratories). All mice developed tumors in 10 days with size of approximately 100 mm3. For each experiment, mice were randomly distributed into equal groups (4 mice per group) that were untreated, or treated by intraperitoneal injections every 5 days with 20 mg/kg GS27 or doxorubicin. Tumor volume (average, SD) was evaluated until 20 days post-treatment.

[1] = test system: AsPC-1 pancreatic cancer tumor cells; experiment: Nile red lipid content of AsPC-1 xenograft tumors; assay type: in vivo, mice; settings: 100 mg/kg i.p., tumors collected 24 days post-treatment
Experimental: Tumors derived from the mice treated by intraperitoneal injection with GS27 at 100 mg/kg were collected 24 days post-treatment. The tumors were evaluated for their lipid content using the dye nile red as a fluorescent vital stain for the detection of intracellular lipid droplets by fluorescence microscopy and flow cytofluorometry, as described previously (Greenspan, Peter et al., J Cell Biol, 1985, 100(3):965-973). […] Quantification of the data is shown in the bar graph.

[2] = test system: MCF-10A non-tumorigenic mammary epithelial cells; experiment: Cell Glo luminescence cell growth assay, MCF-10A normal cells; assay type: cell-based, human; settings: 10 μM, forty-eight hours post-treatment
Description: The CellTiter-Glo® Luminescent Cell Viability Assay (Promega Corporation; Madison, WI) is a homogeneous method of determining the number of viable cells in culture based on quantitation of the ATP present, an indicator of metabolically active cells. The homogeneous assay procedure involves adding the single reagent (CellTiter-Glo® Reagent) directly to cells cultured in serum-supplemented medium. The homogeneous “add-mix-measure” format results in cell lysis and generation of a luminescent signal proportional to the amount of ATP present. The amount of ATP is directly proportional to the number of cells present in culture.
Cancer cells (3,000 cells/well) were harvested in a 96-well plate. Then, the cancer cells were treated with GS compounds and incubated for 24 hours. The MT Cell Viability Substrate, NanoLuc® Enzyme and cell culture medium was equilibrated to 37° C. The 2× RealTime-Glo™ reagent was prepared by diluting the MT Cell Viability Substrate and NanoLuc® Enzyme in 37° C. cell culture medium to a 2× concentration for each reagent. […] The cells were kept for ˜20 minutes in the cell culture incubator and then luminescence was measured by using a plate-reading luminometer. […]
The effects of exemplary compounds on cancer cell lines and one non-tumorigenic cell line (control) were investigated using a high throughput screening assay. More specifically, the effects of the GS compounds on cell growth was evaluated by the XTT assay for cell lines HepG2, HeLa, MCF7 ER+, MDA-MB-231, and MKN-45, and by the Cell Glo luminescence assay for cell lines MIA PaCa-2, HCT-116, MCF-10A, and PANC-1. […]
The effect of GS27 on normal cell growth was evaluated using the MCF-10A cell line. […]
GS27, NDI-091143 and Nexletol (10 μM) were used to treat normal epithelial cells MCF-10A cells. […] Forty-eight hours post-treatment, the growth of MCF-10A cells was evaluated by CellTiter-Glo® Luminescent Cell Viability Assay, as discussed in Example 29.

C/C=C(/C=O)[C@@H](CC=O)CC(=O)SCCc1ccccc1 [GS27, S-phenethyl (3S,4E)-4-formyl-3-(2-oxoethyl)hex-4-enethioate]
reduction in the tumor size, HepG2 liver cancer (HepG2 liver cancer tumor): 80% | reduction in the lipid content of AsPC-1 tumor cells [1]: 55% | effect on MCF-10A normal cell growth [2]: did not have any effect
